Test results: patent publication US20230248717A1, “N-(3-HYDROXYPYRIDINE-2-CARBONYL)GLYCINE-BASED ANTITUMOR DRUG SENSITIZER AND APPLICATION THEREOF” (ZHEJIANG UNIVERSITY, priority 2019, published 2023)
In brackets after ≈: the same amount, converted by molar mass. Like-named read-outs stand apart in the source and are kept apart here.

Legend:
[1] = tested on: CT26 mouse colon cancer cells;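 note: MTT read-out taken as absorbance at 562 nm after a 3 h dye incubation, medium-only wells as blank, values averaged over three independent experiments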
Description: (§1) CT26 cells (MC38 cells, 4T1 cells, B16FIO cells, HePa1-6 cells, H22 cells, LLC cells, MB49 cells, P388 cells, C6 cells, BXPC-3 cells, Hela cells, MDA-MB-231 cells, A2780 cells. PC3 cells. HepG2 cells, and HGC-27 cells) were cultured at 5,000 cells/well in a 96-well plate, 100 μL of a medium was added to each well, and the cells were incubated in a 37° C. constant-temperature incubator with 5% CO2 and 95% humidity for 24 h. 100 μL of different concentrations of drugs (DOX: 0.01 μg/mL to 10 μg/mL; PTX: 0.01 μg/mL to 50 μg/mL; Cela: 0.05 μg/mL to 1 μg/mL; sensitizer: 5 μg/mL) were added to each well, while 100 lit of a medium solution was added to the blank group. After culturing for 48 h, centrifugation was conducted at 1,100 rpm for 6 min, the medium in each well was discarded, 100 μL of an 11,11T working solution was added, and the culturing was continued for 3 h. Centrifugation was conducted at 3,300 rpm. for 5 min, the MITT medium in each well was discarded, 100 pt, of the DMSO was added, and the plate was shaken for 5 min to dissolve all crystals in each well. An absorbance of the sample at 562 nm was detected by a microplate reader. Each set of data was an average of three independent experimental results on the same sample.

[2] = tested on: CT26 mouse colon cancer cells; assay: Cytotoxicity (MTT) in combination with chemotherapeutic drugs;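 note: MTT read-out taken as absorbance at 562 nm after a 3 h dye incubation, medium-only wells as blank, values averaged over three independent experiments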
Description: as §1

[3] = tested on: PD-L1 expression in CT26 cells; assay: PD-L1 expression in tumor cells by Western blot; assay type: cell-based, mouse; conditions: 5 μM, 48 h
Description: CT26 cells were inoculated in a 6-well plate at 2×10^4 cells per well and placed in a 37° C. incubator. After the cells adhered, DMSO solutions (5 μM) of compounds 1 to 8 were added separately, and the incubation was continued for 48 h. The medium was discarded, the cells were rinsed three times with pre-cooled PBS, and the washing solution was discarded. 0.2 nrii, of a cell lysis solution containing a protease inhibitor was added to each well and placed on ice to conduct lysis for 30 min.
After the lysis was completed, a lysate and cell debris were scraped to one side of the Petri dish with a cell scraper, the lysate was transferred to a 1.5 mL Ep tube with a pipette, centrifuged at 4° C. (12,000 rpm/5 min), and a supernatant was collected to determine its protein concentration.
The protein sample was diluted with a 1UPAlysis buffer to a certain concentration, 5×SDS loading buffer was added in a protein amount of 1 μg/μL, incubated on a metal bath at 95° C. for 5 min, cooled to room temperature, and the sample was loaded to an SDS-PAGE electrophoresis gel (5% for stacking gel and 12% for resolving gel). Under a voltage of 90 V, the protein was run to the bottom of the stacking gel to form a straight line, then the voltage was adjusted to 125 V, and the electrophoresis was stopped after the bromophenol blue appeared. […]

[4] = tested on: calreticulin in CT26 tumor cells; assay: Drug-induced immunogenic death (calreticulin, confocal); assay type: cell-based, mouse; conditions: doxorubicin-induced CT26 tumor cells, combination with DOX vs DOX alone, 24 h
Description: CT26 cells were plated in confocal culture dishes, and after overnight cell adherence, different drug treatment groups were added, and the incubation was continued for 24 h. The medium was discarded, the cells were rinsed 3 times with PBS, and fixated with 4% paraformaldehyde for 10 min. The cells were rinsed 3 times with PBS for 3 min each time, a 3% BSA solution was added for blocking for 30 min at 37° C., and the blocking solution was removed with absorbent paper. 200 μuL of a calreticulin antibody (FITC-anti-CRT, 1:200) was added to each well and incubated at room temperature for I h in the dark. The cells were rinsed with PBS 3 times for 3 min each time, then a DAPI staining solution was added to each dish and incubated in the dark for 5 min. After washing three times with PBS, the cells were observed under a laser con focal microscope.

[5] = tested on: PD-L1 expression in CT26 cells; assay: PD-L1 expression in tumor cells by flow cytometry; assay type: cell-based, mouse; conditions: 24 h, blank group 32.7%
Description: CT26 cells were inoculated in a 6-well plate at 2×10^4 cells per well. After the cells adhered. […] The medium was discarded, the cells were rinsed three times with PBS, and 0.2 mL of trypsin containing EDTA was added to each well. The digested cells were collected in a flow tube, and a supernatant was removed by centrifugation. The cells were resuspended in a PBS containing 5% goat serum, and an anti-mouse PD-L1 primary antibody (1 μg/1×10^6 cells) was added, and the cells were incubated at 4° C. for 30 min and washed three times with PBS. An equivalent amount of APC-labeled goat anti-rabbit secondary antibody was added and incubation was continued for 30 min; the cells were washed 3 times with PBS and subjected to flow detection on-machine.

[6] = tested on: HIF-1α expression in CT26 cells; assay: HIF-1α expression in tumor cells by flow cytometry; assay type: cell-based, mouse; conditions: 5 μM, 24 h; for expression of HIF-1α in tumor cells: vs blank control
Description: CT26 cells were evenly plated in a 6-well plate at 2×10^4 cells per well. After the cells adhered, DMSO solutions (5 μM) of the different compounds of the present disclosure were added separately, and the incubation was continued for 24 h. The medium was discarded, the cells were rinsed three times with PBS, and 0.2 mL of trypsin containing EDTA was added to each well. The digested cells were collected in a flow tube, and a supernatant was removed by centrifugation; the cells were resuspended in a PBS containing 5% goat serum, and an FITC anti-mouse HIF-1α antibody (1 μg/1×10^6 cells) was added, incubated at 4° C. for 30 min, and washed three times with PBS, and subjected to flow detection on-machine.

[7] = tested on: mRNA expression of PD-L1 in CT26 cells; assay: PD-L1 mRNA expression in tumor cells by qPCR; assay type: cell-based, mouse; conditions: 5 μM, 48 h, GAPDH internal reference
Description: CT26 cells were inoculated in a 6-well plate at 2×10^5 cells per well and placed in a 37° C. incubator. After the cells adhered, DMSO solutions (5 μM) of the compounds of the present disclosure were added separately, and the incubation was continued for 48 h. Total RNA was lysed and extracted, and reverse transcription and PCR experiments were conducted to detect an RNA level of PD-L1 in CT26 cells, using a GAPDH gene as an internal reference.

[8] = tested on: Raw264.7 M2 tumor-associated macrophages (TAM2s); assay: Polarization of macrophages from M2 to M1 (PCR); assay type: cell-based, mouse; conditions: IL-4-induced TAM2s, 5 μM, 24 h, vs untreated TAM2s
Description: A mouse macrophage cell line Raw264.7 was inoculated in a 24-well plate. After 12 hours of cell adhesion, the cells were further cultured for one day in a medium containing IL-4 (40 ng/mL) to induce the cells to differentiate into M2 tumor-associated macrophages (TAM2s). DMSO solutions (5 μM) of different groups of the compounds of the present disclosure were added to the TAM2s to treat for 24 h, the cells were collected and lysed, and a total RNA was extracted. The total RNA was subjected to reverse transcription and PCR experiments to detect the RNA levels of an M2 macrophage-specific protein argl and an M1 macrophage-specific protein Nos2 with an hprt gene as an internal reference.

[9] = CT26 cell line, chemotherapeutic drug in combination with compound 7 (sensitizer 5 μg/mL), 48 h

N.N.O=C([O-])C1(C(=O)[O-])CCC1.[Pt+2] [Carboplatin]
IC50 [1]: 0.761 ± 0.044 µg/mL | IC50, Compound 7+ [2, 9]: 0.192 ± 0.052 µg/mL

O=C1c2c(O)ccc(O)c2C(=O)c2c(NCCNCCO)ccc(NCCNCCO)c21 [Mitoxantrone]
IC50 [1]: 2.12 ± 0.297 µg/mL (≈ 4.76 µM) | IC50, Compound 7+ [2, 9]: 0.815 ± 0.021 µg/mL

O=C1[O][Pt]2([NH][C@@H]3CCCC[C@H]3[NH]2)[O]C1=O [Oxaliplatin]
IC50, Compound 7+ [2]: 0.197 ± 0.022 µg/mL | IC50, Compound 7− [2]: 0.650 ± 0.009 µg/mL

CCc1c2c(nc3ccc(O)cc13)-c1cc3c(c(=O)n1C2)COC(=O)[C@]3(O)CC [7-ethyl-10-hydroxycamptothecine]
IC50 [1]: 0.066 ± 0.006 µg/mL (≈ 0.168 µM) | IC50, Compound 7+ [2, 9]: 0.025 ± 0.001 µg/mL

CC(C)=CCC[C@]1(C)C=Cc2c(O)c3c(c(CC=C(C)C)c2O1)O[C@]12C(=C[C@@H]4C[C@H]1C(C)(C)O[C@@]2(C/C=C(/C)C(=O)O)C4=O)C3=O [Gambogic acid]
IC50 [1]: 2.18 ± 0.454 µg/mL (≈ 3.47 µM) | IC50, Compound 7+ [2, 9]: 0.792 ± 0.181 µg/mL

CC1=C(O)C(=O)C=C2C1=CC=C1[C@@]2(C)CC[C@@]2(C)[C@@H]3C[C@](C)(C(=O)O)CC[C@]3(C)CC[C@]12C [Tripterine]
IC50, Compound 7+ [2]: 1.592 ± 0.142 µg/mL | IC50, Compound 7− [2]: 5.219 ± 0.242 µg/mL

Cc1nc(C(=O)NCC(=O)O)c(O)c2ccc(Oc3ccccc3)cc12 [compound 7, N-(4-Hydroxy-1-methyl-7-phenoxyisoquinoline-3-carbonyl)glycine]
expression of PD-L1 in tumor cells (Western blot) [3]: best effect | calreticulin expression (immunogenic death) [4]: express more calreticulin | PD-L1 expression rate ([5]; 10 μM compound 7 group): 18.8% | PD-L1 expression rate ([5]; 2.5 compound 7 group): 24% | PD-L1 expression rate ([5]; 5 1μM compound 7 group): 20.8% | reduction of HIF-1α [6]: 45% | expression of HIF-1α in tumor cells [6]: best effect | mRNA expression level of PD-L1 [7]: best effect | RNA level of M1 macrophage-specific protein Nos2 [8]: significantly increased | RNA level of M2 macrophage-specific protein argl [8]: significantly decreased | cell viability, combination with chemotherapeutic drug DOX vs chemotherapeutic drug alone ([2]; CT26 cells, sensitizer 5 μg/mL, 48 h): best effect | toxicity of doxorubicin (DOX), paclitaxel (PTX), oxaliplatin (OXA) or camptothecin (irinotecan, SN38) on CT26 cells ([2]; combination with compound 7, 48 h): increase the toxicity

O=C1[O][Pt]2([NH][C@@H]3CCCC[C@H]3[NH]2)[O]C1=O [Eloxatin]
IC50, Compound 7+ [2, 9]: 2.497 ± 0.185 µg/mL

CC(=O)O[C@@]12CO[C@@H]1C[C@H](O)[C@@]1(C)C(=O)[C@H](O)C3=C(C)[C@@H](OC(=O)[C@H](O)[C@@H](NC(=O)OC(C)(C)C)c4ccccc4)C[C@@](O)([C@@H](OC(=O)c4ccccc4)[C@H]21)C3(C)C [Docetaxel]
IC50, Compound 7+ [2, 9]: 0.029 ± 0.005 µg/mL

N.N.[Cl][Pt][Cl] [Cis-platinum]
IC50 [1]: 1.28 ± 0.146 µg/mL | IC50, Compound 7+ [2, 9]: 0.571 ± 0.068 µg/mL

O=C(O)CNC(=O)c1ncc(-c2cccc(Cl)c2)cc1O [compound 6]
expression of PD-L1 in tumor cells (Western blot) [3]: best effect | expression of HIF-1α in tumor cells [6]: best effect | mRNA expression level of PD-L1 [7]: best effect

CCc1c2c(nc3ccc(OC(=O)N4CCC(N5CCCCC5)CC4)cc13)-c1cc3c(c(=O)n1C2)COC(=O)[C@]3(O)CC [Irinotecan]
IC50 [1]: 2.42 ± 0.197 µg/mL (≈ 4.12 µM) | IC50, Compound 7+ [2, 9]: 1.415 ± 0.022 µg/mL

COc1cccc2c1C(=O)c1c(O)c3c(c(O)c1C2=O)C[C@@](O)(C(=O)CO)C[C@@H]3O[C@H]1C[C@H](N)[C@@H](O)[C@H](C)O1 [Epirubicin]
IC50 [1]: 97.4 ± 3.33 µg/mL (≈ 179 µM) | IC50, Compound 7+ [2, 9]: 17.125 ± 1.338 µg/mL

CC[C@]1(O)C[C@H]2CN(CCc3c([nH]c4ccccc34)[C@@](C(=O)OC)(c3cc4c(cc3OC)N(C=O)[C@H]3[C@@](O)(C(=O)OC)[C@H](OC(C)=O)[C@]5(CC)C=CCN6CC[C@]43[C@@H]65)C2)C1 [Vincristine]
IC50 [1]: 68.2 ± 2.29 µg/mL (≈ 82.6 µM) | IC50, Compound 7+ [2, 9]: 44.312 ± 1.851 µg/mL
